Experimental data as given in ChEMBL document CHEMBL1201861, “Genomics of Drug Sensitity in Cancer screening data, Wellcome Trust Sanger Institute”.

Assays:
Test in all cases: cells
CW-2 = format: functional, cell-based, Homo sapiens; conditions: Homo sapiens, CW-2;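 also: growth inhibition of CW-2 cells, read out by a cell viability assay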
Description: SANGER: Inhibition of human CW-2 cell growth in a cell viability assay.

Detroit 562 = format: functional, cell-based, Homo sapiens; conditions: Homo sapiens, Detroit 562;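 also: growth inhibition of human Detroit 562 cells, read out by a cell viability assay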
Description: SANGER: Inhibition of human Detroit562 cell growth in a cell viability assay.

FTC-133 = format: functional, cell-based, Homo sapiens; conditions: Homo sapiens, FTC-133
GAK = format: functional, cell-based, Homo sapiens; conditions: Homo sapiens, GAK;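 also: cell growth inhibition read out by a cell viability assay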
Description: SANGER: Inhibition of human GAK cell growth in a cell viability assay.

GOTO = format: functional, cell-based, Homo sapiens; conditions: Homo sapiens, GOTO;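 also: growth inhibition of GOTO cells, read out by a cell viability assay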
Description: SANGER: Inhibition of human GOTO cell growth in a cell viability assay.

HCC38 = format: functional, cell-based, Homo sapiens; conditions: Homo sapiens, HCC38;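 also: cell viability assay on the human HCC38 cell line, with IC50 marking the concentration that inhibits cell growth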
Description: SANGER: Inhibition of human HCC38 cell growth in a cell viability assay.

HCT-116 = format: functional, cell-based, Homo sapiens; conditions: Homo sapiens, HCT-116
Description: SANGER: Inhibition of human HCT-116 cell growth in a cell viability assay.

HOS = format: functional, cell-based, Homo sapiens; conditions: Homo sapiens, HOS;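 also: growth inhibition of human HOS cells, read out with a cell viability assay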
Description: SANGER: Inhibition of human HOS cell growth in a cell viability assay.

HPAF-II = format: functional, cell-based, Homo sapiens; conditions: Homo sapiens, HPAF-II;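 also: growth inhibition of HPAF-II cells, read out with a cell viability assay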
Description: SANGER: Inhibition of human HPAF-II cell growth in a cell viability assay.

HT-144 = format: functional, cell-based, Homo sapiens; conditions: Homo sapiens, HT-144
Description: SANGER: Inhibition of human HT-144 cell growth in a cell viability assay.

JEG-3 = format: functional, cell-based, Homo sapiens; conditions: Homo sapiens, JEG-3;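 also: growth inhibition of human JEG-3 cells, read out with a cell viability assay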
Description: SANGER: Inhibition of human JEG-3 cell growth in a cell viability assay.

KP-N-YN = format: functional, cell-based; conditions: Homo sapiens;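 also: growth inhibition of KP-N-YN cells, read out with a cell viability assay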
Description: SANGER: Inhibition of human KP-N-YN cell growth in a cell viability assay.

KU-19-19 = format: functional, cell-based, Homo sapiens; conditions: Homo sapiens, KU-19-19
Description: SANGER: Inhibition of human KU-19-19 cell growth in a cell viability assay.

L-363 = format: functional, cell-based; conditions: Homo sapiens
Description: SANGER: Inhibition of human L-363 cell growth in a cell viability assay.

L-428 = format: functional, cell-based; conditions: Homo sapiens
Description: SANGER: Inhibition of human L-428 cell growth in a cell viability assay.

LS-513 = format: functional, cell-based, Homo sapiens; conditions: Homo sapiens, LS-513
Description: SANGER: Inhibition of human LS-513 cell growth in a cell viability assay.

MFE-280 = format: functional, cell-based, Homo sapiens; conditions: Homo sapiens, MFE-280;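 also: growth inhibition of MFE-280 cells, determined with a cell viability readout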
Description: SANGER: Inhibition of human MFE-280 cell growth in a cell viability assay.

ML-2 = format: functional, cell-based; conditions: Homo sapiens;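 also: growth inhibition of ML-2 cells, measured with a cell viability readout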
Description: SANGER: Inhibition of human ML-2 cell growth in a cell viability assay.

NB10 = format: functional, cell-based, Homo sapiens; conditions: Homo sapiens, NB10;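 also: growth inhibition of NB10 cells, read out by a cell viability assay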
Description: SANGER: Inhibition of human NB10 cell growth in a cell viability assay.

NB13 = format: functional, cell-based, Homo sapiens; conditions: Homo sapiens, NB13;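 also: cell viability readout measuring growth inhibition of human NB13 cells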
Description: SANGER: Inhibition of human NB13 cell growth in a cell viability assay.

NB6 = format: functional, cell-based, Homo sapiens; conditions: Homo sapiens, NB6
Description: SANGER: Inhibition of human NB6 cell growth in a cell viability assay.

NB69 = format: functional, cell-based, Homo sapiens; conditions: Homo sapiens, NB69;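 also: growth inhibition of NB69 cells, determined by a cell viability assay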
Description: SANGER: Inhibition of human NB69 cell growth in a cell viability assay.

NCI-H1650 = format: functional, cell-based, Homo sapiens; conditions: Homo sapiens, NCI-H1650;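 also: growth inhibition of human NCI-H1650 cells measured by a cell viability assay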
Description: SANGER: Inhibition of human NCI-H1650 cell growth in a cell viability assay.

NCI-H2052 = format: functional, cell-based, Homo sapiens; conditions: Homo sapiens, NCI-H2052;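 also: growth inhibition of NCI-H2052 cells, read out with a cell viability assay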
Description: SANGER: Inhibition of human NCI-H2052 cell growth in a cell viability assay.

NCI-H441 = format: functional, cell-based; conditions: Homo sapiens;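 also: growth inhibition of NCI-H441 cells, read out with a cell viability assay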
Description: SANGER: Inhibition of human NCI-H441 cell growth in a cell viability assay.

NCI-H510A = format: functional, cell-based; conditions: Homo sapiens;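 also: growth inhibition of NCI-H510A cells, read out with a cell viability assay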
Description: SANGER: Inhibition of human NCI-H510A cell growth in a cell viability assay.

NCI-H526 = format: functional, cell-based; conditions: Homo sapiens;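 also: growth inhibition of the human NCI-H526 cell line, measured by a cell viability assay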
Description: SANGER: Inhibition of human NCI-H526 cell growth in a cell viability assay.

OMC-1 = format: functional, cell-based, Homo sapiens; conditions: Homo sapiens, OMC-1;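 also: growth inhibition of the OMC-1 cell line, measured by a cell viability assay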
Description: SANGER: Inhibition of human OMC-1 cell growth in a cell viability assay.

QIMR-WIL = format: functional, cell-based; conditions: Homo sapiens;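 also: growth inhibition of QIMR-WIL cells, read out with a cell viability assay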
Description: SANGER: Inhibition of human QIMR-WIL cell growth in a cell viability assay.

SCH = format: functional, cell-based, Homo sapiens; conditions: Homo sapiens, SCH;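 also: growth inhibition of human SCH cells, read out in a cell viability assay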
Description: SANGER: Inhibition of human SCH cell growth in a cell viability assay.

SK-MEL-24 = format: functional, cell-based; conditions: Homo sapiens;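 also: growth inhibition read out by a cell viability assay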
Description: SANGER: Inhibition of human SK-MEL-24 cell growth in a cell viability assay.

SK-MEL3 = format: functional, cell-based, Homo sapiens, SK-MEL-3; conditions: Homo sapiens, SK-MEL3;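 also: growth inhibition of human SK-MEL-3 cells, read out with a cell viability assay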
Description: SANGER: Inhibition of human SK-MEL-3 cell growth in a cell viability assay.

SK-MEL-30 = format: functional, cell-based; conditions: Homo sapiens;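 also: growth inhibition of SK-MEL-30 cells, determined with a cell viability assay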
Description: SANGER: Inhibition of human SK-MEL-30 cell growth in a cell viability assay.

SK-MES-1 = format: functional, cell-based, Homo sapiens; conditions: Homo sapiens, SK-MES-1;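 also: growth inhibition of human SK-MES-1 cells, read out with a cell viability assay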
Description: SANGER: Inhibition of human SK-MES-1 cell growth in a cell viability assay.

SW1088 = format: functional, cell-based, Homo sapiens; conditions: Homo sapiens, SW1088;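 also: growth inhibition of human SW1088 cells, read out by a cell viability assay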
Description: SANGER: Inhibition of human SW1088 cell growth in a cell viability assay.

SW1463 = format: functional, cell-based, Homo sapiens; conditions: Homo sapiens, SW1463;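 also: growth inhibition of SW1463 cells, determined with a cell viability assay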
Description: SANGER: Inhibition of human SW1463 cell growth in a cell viability assay.

SW1710 = format: functional, cell-based, Homo sapiens; conditions: Homo sapiens, SW1710;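 also: growth inhibition of SW1710 cells, determined with a cell viability assay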
Description: SANGER: Inhibition of human SW1710 cell growth in a cell viability assay.

T47D = format: functional, cell-based, Homo sapiens; conditions: Homo sapiens, T47D;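 also: growth inhibition of human T47D cells, measured with a cell viability assay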
Description: SANGER: Inhibition of human T47D cell growth in a cell viability assay.

5637 = format: functional, cell-based, Homo sapiens; conditions: Homo sapiens
Description: SANGER: Inhibition of human 5637 cell growth in a cell viability assay.

639-V = format: functional, cell-based, Homo sapiens; conditions: Homo sapiens, 639-V;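 also: growth inhibition of 639-V cells, read out with a cell viability assay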
Description: SANGER: Inhibition of human 639-V cell growth in a cell viability assay.

769-P = format: functional, cell-based, Homo sapiens; conditions: Homo sapiens, 769-P
Description: SANGER: Inhibition of human 769-P cell growth in a cell viability assay.

C3A = format: functional, cell-based, Homo sapiens; conditions: Homo sapiens, C3A;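 also: growth inhibition of C3A human cells, quantified with a cell viability readout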
Description: SANGER: Inhibition of human C3A cell growth in a cell viability assay.

CAL-27 = format: functional, cell-based, Homo sapiens; conditions: Homo sapiens, CAL-27;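 also: Viability-based readout, IC50 reflecting inhibition of CAL-27 cell growth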
Description: SANGER: Inhibition of human CAL-27 cell growth in a cell viability assay.

U-118-MG = format: functional, cell-based, Homo sapiens; conditions: Homo sapiens, U-118-MG
Description: SANGER: Inhibition of human U-118-MG cell growth in a cell viability assay.

UMUC3 = format: functional, cell-based, Homo sapiens; conditions: Homo sapiens, UMUC3;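 also: growth inhibition of human UM-UC-3 cells, read out with a cell viability assay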
Description: SANGER: Inhibition of human UM-UC-3 cell growth in a cell viability assay.

VM-CUB-1 = format: functional, cell-based; conditions: Homo sapiens;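 also: cell viability assay measuring growth inhibition of the human VM-CUB-1 cell line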
Description: SANGER: Inhibition of human VM-CUB-1 cell growth in a cell viability assay.

CAS-1 = format: functional, cell-based, Homo sapiens; conditions: Homo sapiens, CAS-1;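 also: growth inhibition of CAS-1 cells, measured with a cell viability assay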
Description: SANGER: Inhibition of human CAS-1 cell growth in a cell viability assay.

COLO-320-HSR = format: functional, cell-based; conditions: Homo sapiens;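 also: growth inhibition of COLO-320-HSR cells, determined with a cell viability assay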
Description: SANGER: Inhibition of human COLO-320-HSR cell growth in a cell viability assay.

COLO-678 = format: functional, cell-based, Homo sapiens; conditions: Homo sapiens, COLO-678
Description: SANGER: Inhibition of human COLO-678 cell growth in a cell viability assay.

EW-3 = format: functional, cell-based; conditions: Homo sapiens;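 also: cell viability assay read-out, IC50 reflects inhibition of growth of the EW-3 cells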
Description: SANGER: Inhibition of human EW-3 cell growth in a cell viability assay.

NCI-H69 = format: functional, cell-based; conditions: Homo sapiens;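 also: growth inhibition of the cell line, read out with a cell viability assay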
Description: SANGER: Inhibition of human NCI-H69 cell growth in a cell viability assay.

D-542MG = format: functional, cell-based, Homo sapiens; conditions: Homo sapiens, D-542MG
Description: SANGER: Inhibition of human D-542MG cell growth in a cell viability assay.

LB996-RCC = format: functional, cell-based; conditions: Homo sapiens
Description: SANGER: Inhibition of human LB996-RCC cell growth in a cell viability assay.

CN(Cc1cnc2nc(N)nc(N)c2n1)c1ccc(C(=O)N[C@@H](CCC(=O)O)C(=O)O)cc1 [METHOTREXATE]
IC50 (CW-2): > 0.2 µM
IC50 (Detroit 562): > 0.2 µM
IC50 (FTC-133): > 0.2 µM
IC50 (GAK): > 0.2 µM
IC50 (GOTO): > 0.2 µM
IC50 (HCC38): > 0.2 µM
IC50 (HCT-116): > 0.2 µM
IC50 (HOS): > 0.2 µM
IC50 (HPAF-II): > 0.2 µM
IC50 (HT-144): > 0.2 µM
IC50 (JEG-3): > 0.2 µM
IC50 (KP-N-YN): > 0.2 µM
IC50 (KU-19-19): > 0.2 µM
IC50 (L-363): 0.0143 µM
IC50 (L-428): > 0.2 µM
IC50 (LS-513): > 0.2 µM
IC50 (MFE-280): > 0.2 µM
IC50 (ML-2): 0.00497 µM
IC50 (NB10): > 0.2 µM
IC50 (NB13): > 0.2 µM
IC50 (NB6): > 0.2 µM
IC50 (NB69): > 0.2 µM
IC50 (NCI-H1650): > 0.2 µM
IC50 (NCI-H2052): > 0.2 µM
IC50 (NCI-H441): > 0.2 µM
IC50 (NCI-H510A): > 0.2 µM
IC50 (NCI-H526): 0.000691 µM
IC50 (OMC-1): > 0.2 µM
IC50 (QIMR-WIL): 0.139 µM
IC50 (SCH): > 0.2 µM
IC50 (SK-MEL-24): > 0.2 µM
IC50 (SK-MEL3): > 0.2 µM
IC50 (SK-MEL-30): > 0.2 µM
IC50 (SK-MES-1): > 0.2 µM
IC50 (SW1088): > 0.2 µM
IC50 (SW1463): > 0.2 µM
IC50 (SW1710): > 0.2 µM
IC50 (T47D): > 0.2 µM
IC50 5637: > 0.2 µM
IC50 (639-V): > 0.2 µM
IC50 (769-P): 0.0453 µM
IC50 (C3A): > 0.2 µM
IC50 (CAL-27): > 0.2 µM
IC50 (U-118-MG): > 0.2 µM
IC50 (UMUC3): > 0.2 µM
IC50 (VM-CUB-1): > 0.2 µM
IC50 (CAS-1): > 0.2 µM
IC50 (COLO-320-HSR): 0.0524 µM
IC50 (COLO-678): > 0.2 µM

O=C(c1cc(Cc2n[nH]c(=O)c3ccccc23)ccc1F)N1CCN(C(=O)C2CC2)CC1 [OLAPARIB]
IC50 (CW-2): > 5 µM
IC50 (Detroit 562): > 5 µM
IC50 (EW-3): 2.28 µM
IC50 (FTC-133): > 5 µM
IC50 (GAK): > 5 µM
IC50 (GOTO): > 5 µM
IC50 (HCC38): > 5 µM
IC50 (HCT-116): > 5 µM
IC50 (HOS): > 5 µM
IC50 (HPAF-II): > 5 µM
IC50 (HT-144): > 5 µM
IC50 (JEG-3): > 5 µM
IC50 (KP-N-YN): > 5 µM
IC50 (KU-19-19): > 5 µM
IC50 (L-363): > 5 µM
IC50 (L-428): > 5 µM
IC50 (LS-513): > 5 µM
IC50 (MFE-280): > 5 µM
IC50 (ML-2): 3.6 µM
IC50 (NB10): > 5 µM
IC50 (NB13): > 5 µM
IC50 (NB6): > 5 µM
IC50 (NB69): > 5 µM
IC50 (NCI-H1650): > 5 µM
IC50 (NCI-H2052): > 5 µM
IC50 (NCI-H441): > 5 µM
IC50 (NCI-H510A): 3.83 µM
IC50 (NCI-H526): 3.87 µM
IC50 (NCI-H69): > 5 µM
IC50 (OMC-1): > 5 µM
IC50 (QIMR-WIL): > 5 µM
IC50 (SCH): > 5 µM
IC50 (SK-MEL-24): > 5 µM
IC50 (SK-MEL3): > 5 µM
IC50 (SK-MEL-30): > 5 µM
IC50 (SK-MES-1): > 5 µM
IC50 (SW1088): > 5 µM
IC50 (SW1463): > 5 µM
IC50 (SW1710): > 5 µM
IC50 (T47D): > 5 µM
IC50 5637: > 5 µM
IC50 (639-V): > 5 µM
IC50 (769-P): > 5 µM
IC50 (C3A): > 5 µM
IC50 (CAL-27): > 5 µM
IC50 (U-118-MG): > 5 µM
IC50 (UMUC3): > 5 µM
IC50 (VM-CUB-1): > 5 µM
IC50 (CAS-1): > 5 µM
IC50 (COLO-320-HSR): > 5 µM
IC50 (COLO-678): > 5 µM

O=c1cc(-c2cccc3c2Sc2ccccc2S3)oc(N2CCOCC2)c1 [KU-55933]
IC50 (CW-2): > 10 µM
IC50 (D-542MG): > 10 µM
IC50 (Detroit 562): > 10 µM
IC50 (FTC-133): > 10 µM
IC50 (GAK): > 10 µM
IC50 (GOTO): > 10 µM
IC50 (HCC38): > 10 µM
IC50 (HCT-116): > 10 µM
IC50 (HOS): > 10 µM
IC50 (HPAF-II): > 10 µM
IC50 (HT-144): > 10 µM
IC50 (JEG-3): > 10 µM
IC50 (KP-N-YN): > 10 µM
IC50 (KU-19-19): > 10 µM
IC50 (L-363): > 10 µM
IC50 (L-428): > 10 µM
IC50 (LB996-RCC): > 10 µM
IC50 (LS-513): > 10 µM
IC50 (MFE-280): > 10 µM
IC50 (NB10): > 10 µM
IC50 (NB13): > 10 µM
IC50 (NB6): > 10 µM
IC50 (NB69): > 10 µM
IC50 (NCI-H1650): > 10 µM
IC50 (NCI-H2052): > 10 µM
IC50 (NCI-H441): > 10 µM
IC50 (NCI-H526): > 10 µM
IC50 (OMC-1): > 10 µM
IC50 (QIMR-WIL): > 10 µM
IC50 (SCH): > 10 µM
IC50 (SK-MEL-24): > 10 µM
IC50 (SK-MEL3): 8.29 µM
IC50 (SK-MEL-30): > 10 µM
IC50 (SK-MES-1): > 10 µM
IC50 (SW1088): > 10 µM
IC50 (SW1463): > 10 µM
IC50 (SW1710): > 10 µM
IC50 (T47D): > 10 µM
IC50 5637: > 10 µM
IC50 (639-V): > 10 µM
IC50 (769-P): > 10 µM
IC50 (C3A): > 10 µM
IC50 (CAL-27): > 10 µM
IC50 (U-118-MG): > 10 µM
IC50 (UMUC3): > 10 µM
IC50 (VM-CUB-1): > 10 µM
IC50 (CAS-1): > 10 µM
IC50 (COLO-320-HSR): > 10 µM
IC50 (COLO-678): > 10 µM
